Experimental data as given in patent US11814391B2, “Macrocyclic compounds for the treatment of medical disorders” (Achillion Pharmaceuticals, Inc., priority 2018, dated 2023).

Molecular target: Human Factor D (Homo sapiens (Human), UniProt P00746)
Assay: Human Factor D assay
Assay type: biochemical
Settings: Human Factor D 80 nM, substrate Z-L-Lys-SBzl, A405; read-out: IC50 (Stars)
Experimental: The assay of Example 3 was used to determine the IC50's of the compounds. Other standard factor D inhibition assays are also available.
Human Factor D (purified from human serum, Complement Technology, Inc.) at 80 nM final concentration is incubated with test compound at various concentrations for 5 min at room temperature in 50 mM Tris, 1M NaCl, pH 7.5. A synthetic substrate Z-L-Lys-SBzI and DTNB (Ellman's reagent) are added to final concentrations of 100 μM each. Absorbance at 405 nm (A405) is recorded at 30 second intervals for 30 min using a microplate spectrophotometer. IC50 values are calculated by nonlinear regression of complement Factor D reaction rates as a function of test compound concentration.

Sequence of Human Factor D (P00746 26-253): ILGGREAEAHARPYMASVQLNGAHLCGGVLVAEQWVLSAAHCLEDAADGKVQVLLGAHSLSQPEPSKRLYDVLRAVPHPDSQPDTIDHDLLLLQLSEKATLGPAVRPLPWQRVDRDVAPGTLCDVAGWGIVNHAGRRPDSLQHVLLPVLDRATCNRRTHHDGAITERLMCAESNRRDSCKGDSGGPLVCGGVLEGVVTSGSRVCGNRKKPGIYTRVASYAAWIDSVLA

Row | Structure (SMILES) | IC50
1 | CC(=O)c1nn2c3c(cc(-c4cnc(C)nc4)cc13)CCCCCCCCCc1ccc(Br)nc1NC(=O)[C@H](C)N(C)C(=O)C2 [Compound 38, (S)-13-acetyl-3-bromo-7,8-dimethyl-15-(2-methylpyrimidin-5-yl)-5,7,8,17,18,19,20,21,22,23,24,25-dodecahydro-6H-pyrido[2′,3′:8,9][1,4,7]triazacycloicosino[19,20,1-hi]indazole-6,9(10H)-dione] | > 10000 nM
2 | CC(=O)c1nn2c3c(cc(NCC4CCCCC4)cc13)CCCCCCC(=O)NC[C@@]13C[C@@H](C(=O)Nc4nc(C(F)(F)F)ccc4C)N(C(=O)C2)[C@@H]1C3 [Compound 39, (4^1R,4^3S,4^5R)-1^3-acetyl-1^5-((cyclohexylmethyl)amino)-N-(3-methyl-6-(trifluoromethyl)pyridin-2-yl)-3,7-dioxo-1^1H-4^2,6-diaza-1(1,7)-indazola-4(2,5)-bicyclo[3.1.0]hexanacyclotridecaphane-4^3-carboxamide] | < 1000 nM
3 | CC(=O)c1nn2c3c(cc(-c4cnc(C)nc4)cc13)CCCCCCCCO[C@@H]1CCN(C(=O)C2)[C@@H]1C(=O)NCc1cccc(Cl)c1F [Compound 40, (4^2S,4^3R)-1^3-acetyl-N-(3-chloro-2-fluorobenzyl)-1^5-(2-methylpyrimidin-5-yl)-3-oxo-1^1H-5-oxa-1(1,7)-indazola-4(1,3)-pyrrolidinacyclotridecaphane-4^2-carboxamide] | < 1000 nM
4 | CC(=O)c1nn2c3c(nc(C)cc13)C/C=C/CCCCCC(=O)NCc1ccc(Br)nc1NC(=O)[C@@H]1C[C@@]3(C)C[C@H]3N1C(=O)C2 [Compound 45, (20aS,21aR,22aR,E)-26-acetyl-17-bromo-2,21a-dimethyl-8,9,10,11,13,14,20a,21,21a,22,22a,24-dodecahydro-3,13,18,19,22b,24a,25-heptaazabenzo[15,16]cyclopropa[3′,4′]cyclopenta[1′,2′:19, 20]cyclodocosa[1,2,3-cd]indene-12,20,23(4H,7H,19H)-trione] | < 1000 nM
5 | CC(=O)c1nn2c3c(cccc13)CC/C=C/CC(=O)NC[C@@]13C[C@@H](C(=O)Nc4nc(Br)ccc4C)N(C(=O)C2)[C@@H]1C3 [Compound 46, (41R,43S,45R,E)-13-acetyl-N-(6-bromo-3-methylpyridin-2-yl)-3,7-dioxo-11H-42,6-diaza-l(1,7)-indazola-4(2,5)-bicyclo[3.1.0]hexanacyclododecaphan-9-ene-43-carboxamide] | < 1000 nM
6 | CC(=O)c1nn2c3c(cccc13)CC/C=C/CCC(=O)NC[C@@]13C[C@@H](C(=O)Nc4nc(Br)ccc4C)N(C(=O)C2)[C@@H]1C3 [Compound 47, (41R,43S,45R,E)-13-acetyl-N-(6-bromo-3-methylpyridin-2-yl)-3,7-dioxo-11H-42,6-diaza-1(1,7)-indazola-4(2,5)-bicyclo[3.1.0]hexanacyclotridecaphan-10-ene-43-carboxamide] | < 1000 nM
7 | CC(=O)c1nn(CC(=O)N2[C@H]3C[C@]4(C[C@@H]24)Cn2cc(nn2)COCc2ccc(Br)nc2NC3=O)c2cnccc12 [Compound 48, (31R,33S,35R,Z)-32-(2-(3-acetyl-1H-pyrazolo[3,4-c]pyridin-1-yl)acetyl)-66-bromo-11H-8-oxa-32,5-diaza-6(2,3)-pyridina-1(1,4)-triazola-3(5,3)-bicyclo[3.1,0]hexanacyclononaphan-4-one] | < 1000 nM
8 | CC(=O)c1nn2c3c(cc(-c4cnc(C)nc4)cc13)CCCCCCCCc1ccc(Br)nc1NC(=O)[C@H](C)N(C)C(=O)C2 [Compound 51, (S)-2-acetyl-16-bromo-20,21-dimethyl-4-(2-methylpyrimidin-5-yl)-6,7,8,9,10,11,12,13,20,21 - decahydropyrido[2′,3′:8,9][1,4,7]triazacyclononadecino [18,19,1-hi]indazole-19,22(18H,23H)-dione] | > 10000 nM
9 | CC(=O)c1nn2c3c(cc(NCC4CCCCC4)cc13)CCCCCCC(=O)NCC13CC(C(=O)Nc4nc(C(F)(F)F)ccc4C)N(C(=O)C2)C1C3 [Compound 52, (41R,43S,45R)-13-acetyl-15-((cyclohexylmethyl)amino)-N-(3-methyl-6-(trifluoromethyl)pyridin-2-yl)-3,7-dioxo-11H-42,6-diaza-1(1,7)-indazola-4(2,5)-bicyclo[3.1.0]hexanacyclotridecaphane-43-carboxamide] | < 1000 nM
10 | CC(=O)c1nn2c3c(cc(-c4cnc(C)nc4)cc13)CCCCCCCCCCCO[C@@H]1CCN(C(=O)C2)[C@@H]1C(=O)NCc1cccc(Cl)c1F [Compound 54, (42S,43R)-13-acetyl-N-(3-chloro-2-fluorobenzyl)-15-(2-methylpyrimidin-5-yl)-3-oxo-11H-5-oxa-1(1,7)-indazola-4(1,3)-pyrrolidinacyclohexadecaphane-42-carboxamide] | < 1000 nM
11 | CC(=O)c1nn2c3c(cc(NC4CCCC4)cc13)CCCCCCC(=O)NCC13CC(C(=O)Nc4nc(C(F)(F)F)ccc4C)N(C(=O)C2)C1C3 [Compound 55, (41R,43S,45R)-13-acetyl-15-(cyclopentylamino)-N-(3-methyl-6-(trifluoromethyl)pyridin-2-yl)-3,7-dioxo-11H-42,6-diaza-1(1,7)-indazola-4(2,5)-bicyclo[3.1.0]hexanacyclotridecaphane-43-carboxamide] | < 1000 nM
12 | CC(=O)c1nn2c3c(cc(-c4cnc(C)nc4)cc13)CCCCCCCCCC[C@@H](C(=O)Nc1nc(Br)ccc1C)N(C)C(=O)C2 [Compound 56, (S)-2-acetyl-N-(6-bromo-3-methylpyridin-2-yl)-17-methyl-4-(2-methylpyrimidin-5-yl)-18-oxo-6,7,8,9,10,11,12,13,14,15,16,17,18,19-tetradecahydro-[1,4]diazacycloheptadecino[16,17,1-hi]indazole-16-carboxamide] | > 10000 nM
13 | CC(=O)c1nn2c3c(cc(NC(=O)C4CC4)cc13)CCCCCCC(=O)NCC13CC(C(=O)Nc4nc(C(F)(F)F)ccc4C)N(C(=O)C2)C1C3 [Compound 57, (41R,43S,45R)-13-acetyl-15-(cyclopropanecarboxamido)-N-(3-methyl-6-(trifluoromethyl)pyridin-2-yl)-3,7-dioxo-11H-42,6-diaza-1(1,7)-indazola-4(2,5)-bicyclo[3.1.0]hexanacyclotridecaphane-43-carboxamide] | < 1000 nM
14 | CC(=O)c1nn2c3c(cc(-c4cnc(C)nc4)cc13)NCCCCCC(=O)NCC13CC(C(=O)Nc4nc(C(F)(F)F)ccc4C)N(C(=O)C2)C1C3 [Compound 58, (41R,43S,45R)-13-acetyl-N-(3-methyl-6-(trifluoromethyl)pyridin-2-yl)-15-(2-methylpyrimidin-5-yl)-3,7-dioxo-11H-42,6,13-triaza-1(1,7)-indazola-4(2,5)-bicyclo[3.1.0]hexanacyclotridecaphane-43-carboxamide] | < 1000 nM
15 | CC(=O)c1nn2c3c(cc(-c4cnc(C)nc4)cc13)CCCCCC(C)(C)CNC[C@@]13C[C@@H](C(=O)Nc4nc(C(F)(F)F)ccc4C)N(C(=O)C2)[C@@H]1C3 [Compound 59, (41R,43S,45R)-13-acetyl-8,8-dimethyl-N-(3-methyl-6-(trifluoromethyl)pyridin-2-yl)-15-(2-methylpyrimidin-5-yl)-3-oxo-11H-42,6-diaza-1(1,7)-indazola-4(2,5)-bicyclo[3.1.0]hexanacyclotridecaphane-43-carboxamide] | < 1000 nM
16 | CC(=O)c1nn2c3c(cc(-c4cnc(C)nc4)cc13)NC(=O)CCCCCOCC13CC(C(=O)Nc4nc(C(F)(F)F)ccc4C)N(C(=O)C2)C1C3 [Compound 60, (41R,43S,45S)-13-acetyl-N-(3-methyl-6-(trifluoromethyl)pyridin-2-yl)-15-(2-methylpyrimidin-5-yl)-3,12-dioxo-11H-6-oxa-42,13-diaza-1(1,7)-indazola-4(2,5)-bicyclo[3.1.0]hexanacyclotridecaphane-43-carboxamide] | < 1000 nM
17 | CC(=O)c1nn2c3c(cc(-c4cnc(C)nc4)cc13)CCCCCC(C)(C)CNC[C@@]13C[C@@H](C(=O)NC4CC(C)(C)C4)N(C(=O)C2)[C@@H]1C3 [Compound 61, (41R,43S,45R)-13-acetyl-N-(3,3-dimethylcyclobutyl)-8,8-dimethyl-15-(2-methylpyrimidin-5-yl)-3-oxo-11H-42,6-diaza-1(1,7)-indazola-4(2,5)-bicyclo[3.1.0]hexanacyclotridecaphane-43-carboxamide] | < 1000 nM

Test system: not given
Assay: not given
Settings: from C=CCCC(=O)NCC12CC(C(=O)Nc3nc(C(F)(F)F)ccc3C)N(C(=O)Cn3nc(C(C)=O)c4cc(-c5cnc(C)nc5)cc(N(CC=C)C(=O)OCc5ccccc5)c43)C1C2; rcm bond; 17-membered ring; Grubbs II; toluene; 1.42 mM; 80.0 °C

Row | Structure (SMILES) | ring closure, isolated yield
18 | CC(=O)c1nn2c3c(cc(-c4cnc(C)nc4)cc13)N(C(=O)OCc1ccccc1)CC=CCCC(=O)NCC13CC(C(=O)Nc4nc(C(F)(F)F)ccc4C)N(C(=O)C2)C1C3 (centres unmarked) | 57.2%

Same assay, conditions: from C=CCCC(=O)Nc1cc(-c2cnc(C)nc2)cc2c(C(C)=O)nn(CC(=O)N3C(C(=O)Nc4nc(C(F)(F)F)ccc4C)CC4(COCC=C)CC34)c12; rcm bond; 17-membered ring; Grubbs II; toluene; 1.35 mM; 80.0 °C

Row | Structure (SMILES) | ring closure, isolated yield
19 | CC(=O)c1nn2c3c(cc(-c4cnc(C)nc4)cc13)NC(=O)CCC=CCOCC13CC(C(=O)Nc4nc(C(F)(F)F)ccc4C)N(C(=O)C2)C1C3 (centres unmarked) | 65.8%

Same assay, conditions: from C=CCCC(C)(C)C(=O)NC[C@@]12C[C@@H](C(=O)Nc3nc(C(F)(F)F)ccc3C)N(C(=O)Cn3nc(C(C)=O)c4cc(-c5cnc(C)nc5)cc(CC=C)c43)[C@@H]1C2; rcm bond; 17-membered ring; Grubbs II; toluene; 1.6 mM; 80.0 °C; 16.0 h

Row | Structure (SMILES) | ring closure, isolated yield
20 | CC(=O)c1nn2c3c(cc(-c4cnc(C)nc4)cc13)CC=CCCC(C)(C)C(=O)NC[C@@]13C[C@@H](C(=O)Nc4nc(C(F)(F)F)ccc4C)N(C(=O)C2)[C@@H]1C3 | 71.3%
